# Legend:
# [1] = system: MNRR1-promoter driven luciferase reporter; assay: High throughput screen with MNRR1-promoter driven luciferase reporter cell lines; format: cell-based, human; conditions: list of 2400 FDA-approved drugs, small molecules and natural products
# Protocol: Cell lines, culture, and Z′ determination: Stable cell line generation: HEK293 or MDA-MB-468 cells were transfected with pGL4-MNNR1-luciferase, selected with 0.5 μg/mL (for 293) or 1 μg/mL (for 468) puromycin for 2 weeks, and subcloned by limiting dilution. MDA-MB-468-MNRR1-luc and HEK293-MNRR1-luc cells from multiple clones (5000-7500 cells) were plated in 100 μL of complete medium overnight and treated with 10 μM of each compound from the library for 24 h. The medium was aspirated from each well to a volume of 25 μL, and 25 μL Bright Glo (Promega, Madison, WI) luciferase detection reagent was added to each well 10 min prior to luminescent determination with a FlexStation 3 Multimode Microplate Reader (Molecular Devices, San Jose, CA). […] The Z′ factor is a value used to identify strong candidates and can be calculated using a previously described method. […]
# MicroSource Spectrum Collection: Despite the low Z′ values for MDA-MB-468-MNRR1-luc and HEK293-MNRR1-luc, pilot screens were performed with both using the MicroSource Spectrum Collection (Gaylordsville, CT). […] For HTS, cells were plated, treated, and measured for luciferase expression as described for clone identification; all HTS compounds were added to a final concentration of 10 μM and MNRR1-luciferase expression was measured after 24 h. […]
# MNRR1 = MNRR1 transcript and protein levels in decidua and placenta of LPS-injected dams; format: in vivo, mouse
# Protocol: FIGS. 2A-2F. Nitazoxanide prevents preterm delivery and improves neonatal mortality in vivo. (FIG. 2A) Schematic illustration depicting the administration of nitazoxanide (marketed under the commercial name Alinia) and LPS in the murine model of preterm birth. (FIG. 2B) Gestational length of mice was obtained using video-monitoring until delivery (n=6-8 animals). (FIG. 2C) Neonatal mortality was determined by calculating the number of dead pups over total litter size (n=6-8 animals). […] No pups from LPS-injected dams survived beyond week 0 of birth. (FIG. 2E) MNRR1 transcript levels were measured in mouse decidual tissue (17.5 dpc). Actin was used as a housekeeping gene to normalize expression (n=4 animals for all except PBS+N, where n=3). (FIG. 2F) Equal amounts of whole placental lysates were separated on an SDS-PAGE gel and probed for MNRR1 levels. Actin was used as a loading control. Gel is representative of data obtained from 2 animals. […]
# Real-time polymerase chain reaction: Total cellular RNA was extracted from mouse placental tissues or HTR8 cells by using a RNeasy Plus Mini Kit (Qiagen, Germantown, MD, USA), according to the manufacturer's instructions. […] Transcript levels were measured by real-time PCR by using SYBR green on an ABI 7500 system. […]
compound,measurement,setting,value
"CC(=O)Oc1ccccc1C(=O)Nc1ncc([N+](=O)[O-])s1 [nitazoxanide, Nitazoxanide]",outcome of screen for MNRR1 activators,[1],identified as an MNRR1 activator
same,MNRR1 transcript level in the decidua,MNRR1; 17.5 dpc,restored the LPS-induced reduction of MNRR1
same,MNRR1 protein level in the placenta,MNRR1; whole placental lysates,restored the LPS-induced reduction of MNRR1

# From patent US20250241901A1, “ACTIVATION OF MNRR1 / CHCHD2 AS A THERAPEUTIC TARGET FOR MITOCHONDRIA ASSOCIATED DISORDERS” (Wayne State University, priority 2024, published 2025)
